Reference: ChEMBL document CHEMBL4414679, “Discovery of 4,6-pyrimidinediamine derivatives as novel dual EGFR/FGFR inhibitors aimed EGFR/FGFR1-positive NSCLC” (Eur J Med Chem, 2020)

Experiments:
[1] = molecular target: Fibroblast growth factor receptor 1 (Homo sapiens, UniProt P11362); assay: Inhibition of N-terminal GST-tagged human FGFR1 cytoplasmic domain (398-822 AA) expressed in baculovirus at 10 uM using FAM-labelled peptide as substrate pre-incubated for 10 mins followed by substrate addition by mobility shift assay relative to control
Fibroblast growth factor receptor 1, sequence (P11362 22-822 limits assumed): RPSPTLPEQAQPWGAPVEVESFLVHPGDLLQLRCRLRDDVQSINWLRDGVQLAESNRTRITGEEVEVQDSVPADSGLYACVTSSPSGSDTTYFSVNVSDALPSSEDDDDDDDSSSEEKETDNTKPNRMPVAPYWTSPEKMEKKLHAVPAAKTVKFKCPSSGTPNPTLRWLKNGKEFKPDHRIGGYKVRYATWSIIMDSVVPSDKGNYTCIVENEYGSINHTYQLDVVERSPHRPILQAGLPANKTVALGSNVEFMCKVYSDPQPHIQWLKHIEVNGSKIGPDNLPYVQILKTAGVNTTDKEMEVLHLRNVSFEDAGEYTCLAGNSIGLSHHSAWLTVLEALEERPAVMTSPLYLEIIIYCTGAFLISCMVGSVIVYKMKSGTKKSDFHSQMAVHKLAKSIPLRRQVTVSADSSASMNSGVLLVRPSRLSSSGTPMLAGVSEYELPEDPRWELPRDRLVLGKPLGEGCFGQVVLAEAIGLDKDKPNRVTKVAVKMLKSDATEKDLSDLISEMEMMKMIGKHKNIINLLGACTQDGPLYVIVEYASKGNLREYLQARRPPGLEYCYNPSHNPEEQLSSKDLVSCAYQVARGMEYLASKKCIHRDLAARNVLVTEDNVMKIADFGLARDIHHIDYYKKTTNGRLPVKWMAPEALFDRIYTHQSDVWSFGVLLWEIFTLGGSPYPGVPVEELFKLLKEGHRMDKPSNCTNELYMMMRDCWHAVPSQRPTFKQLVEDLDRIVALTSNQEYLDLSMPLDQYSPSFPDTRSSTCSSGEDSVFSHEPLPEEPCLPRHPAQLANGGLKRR

[2] = molecular target: T1, Epidermal growth factor receptor (Homo sapiens, UniProt P00533); assay: Inhibition of N-terminal GST-tagged human EGFR (d746-750AA) expressed in baculovirus at 10 uM using FAM-labelled peptide as substrate pre-incubated for 10 mins followed by substrate addition by mobility shift assay relative to control
T1 sequence (P00533 whole entry): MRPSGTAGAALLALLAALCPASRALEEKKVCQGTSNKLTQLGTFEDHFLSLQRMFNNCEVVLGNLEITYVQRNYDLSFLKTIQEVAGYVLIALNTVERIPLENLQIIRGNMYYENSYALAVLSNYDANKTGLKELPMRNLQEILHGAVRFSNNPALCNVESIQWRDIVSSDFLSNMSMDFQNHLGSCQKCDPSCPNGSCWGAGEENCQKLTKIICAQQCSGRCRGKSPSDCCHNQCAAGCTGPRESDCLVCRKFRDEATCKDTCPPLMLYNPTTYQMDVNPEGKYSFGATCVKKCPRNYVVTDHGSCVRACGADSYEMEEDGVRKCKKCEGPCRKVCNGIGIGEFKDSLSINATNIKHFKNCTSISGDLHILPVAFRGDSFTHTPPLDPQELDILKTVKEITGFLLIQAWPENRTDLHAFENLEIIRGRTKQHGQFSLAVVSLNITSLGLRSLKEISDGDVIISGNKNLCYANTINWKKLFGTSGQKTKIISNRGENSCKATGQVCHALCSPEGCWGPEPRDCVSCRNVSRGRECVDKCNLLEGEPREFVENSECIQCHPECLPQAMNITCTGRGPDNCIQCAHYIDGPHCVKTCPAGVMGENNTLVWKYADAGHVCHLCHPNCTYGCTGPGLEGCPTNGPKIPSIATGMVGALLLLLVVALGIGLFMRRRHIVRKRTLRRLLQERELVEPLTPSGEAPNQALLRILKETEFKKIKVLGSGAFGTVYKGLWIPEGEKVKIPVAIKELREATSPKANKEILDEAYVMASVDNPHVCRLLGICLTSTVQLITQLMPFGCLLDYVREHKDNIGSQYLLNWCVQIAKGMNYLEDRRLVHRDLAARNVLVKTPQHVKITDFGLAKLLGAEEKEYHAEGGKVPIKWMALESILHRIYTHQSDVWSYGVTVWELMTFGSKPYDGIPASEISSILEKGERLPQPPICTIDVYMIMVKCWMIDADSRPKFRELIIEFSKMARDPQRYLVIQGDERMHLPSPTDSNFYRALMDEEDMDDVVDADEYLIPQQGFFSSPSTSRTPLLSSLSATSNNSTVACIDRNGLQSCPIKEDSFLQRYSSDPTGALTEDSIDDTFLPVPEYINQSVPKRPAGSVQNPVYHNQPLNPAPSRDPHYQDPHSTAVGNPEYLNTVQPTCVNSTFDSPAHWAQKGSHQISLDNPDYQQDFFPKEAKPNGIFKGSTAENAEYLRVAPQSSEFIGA

[3] = tested on: HCC827; assay: Antiproliferative activity against human HCC827 cells assessed as inhibition of cell growth at 10 uM incubated for 48 hrs by MTT assay relative to control; assay type: functional; conditions: HCC827, 48 h
[4] = tested on: NCI-H1581; assay: Antiproliferative activity against human NCI-H1581 cells assessed as inhibition of cell growth at 10 uM incubated for 48 hrs by MTT assay relative to control; assay type: functional; conditions: NCI-H1581, 48 h
[5] = tested on: NCI-H520; assay: Antiproliferative activity against human NCI-H520 cells assessed as inhibition of cell growth at 10 uM incubated for 48 hrs by MTT assay relative to control; assay type: functional; conditions: NCI-H520, 48 h
[6] = tested on: NCI-H226; assay: Antiproliferative activity against human NCI-H226 cells assessed as inhibition of cell growth at 10 uM incubated for 48 hrs by MTT assay relative to control; assay type: functional; conditions: NCI-H226, 48 h
[7] = molecular target: T1, Epidermal growth factor receptor; assay: Inhibition of N-terminal GST-tagged human EGFR cytoplasmic domain (669-1210 AA) expressed in baculovirus at 10 uM using FAM-labelled peptide as substrate pre-incubated for 10 mins followed by substrate addition by mobility shift assay relative to control
[8] = tested on: PC-9; assay: Antiproliferative activity against human PC9 cells assessed as inhibition of cell growth at 10 uM incubated for 48 hrs by MTT assay relative to control; assay type: functional; conditions: PC-9, 48 h
[9] = tested on: Epidermal growth factor receptor (Homo sapiens), P00533 [L858R]; assay: Inhibition of recombinant human EGFR L858R mutant expressed in baculovirus at 10 uM using FAM-labelled peptide as substrate pre-incubated for 10 mins followed by substrate addition by mobility shift assay relative to control
Epidermal growth factor receptor (Homo sapiens), P00533 [L858R], sequence (P00533 whole entry L858R): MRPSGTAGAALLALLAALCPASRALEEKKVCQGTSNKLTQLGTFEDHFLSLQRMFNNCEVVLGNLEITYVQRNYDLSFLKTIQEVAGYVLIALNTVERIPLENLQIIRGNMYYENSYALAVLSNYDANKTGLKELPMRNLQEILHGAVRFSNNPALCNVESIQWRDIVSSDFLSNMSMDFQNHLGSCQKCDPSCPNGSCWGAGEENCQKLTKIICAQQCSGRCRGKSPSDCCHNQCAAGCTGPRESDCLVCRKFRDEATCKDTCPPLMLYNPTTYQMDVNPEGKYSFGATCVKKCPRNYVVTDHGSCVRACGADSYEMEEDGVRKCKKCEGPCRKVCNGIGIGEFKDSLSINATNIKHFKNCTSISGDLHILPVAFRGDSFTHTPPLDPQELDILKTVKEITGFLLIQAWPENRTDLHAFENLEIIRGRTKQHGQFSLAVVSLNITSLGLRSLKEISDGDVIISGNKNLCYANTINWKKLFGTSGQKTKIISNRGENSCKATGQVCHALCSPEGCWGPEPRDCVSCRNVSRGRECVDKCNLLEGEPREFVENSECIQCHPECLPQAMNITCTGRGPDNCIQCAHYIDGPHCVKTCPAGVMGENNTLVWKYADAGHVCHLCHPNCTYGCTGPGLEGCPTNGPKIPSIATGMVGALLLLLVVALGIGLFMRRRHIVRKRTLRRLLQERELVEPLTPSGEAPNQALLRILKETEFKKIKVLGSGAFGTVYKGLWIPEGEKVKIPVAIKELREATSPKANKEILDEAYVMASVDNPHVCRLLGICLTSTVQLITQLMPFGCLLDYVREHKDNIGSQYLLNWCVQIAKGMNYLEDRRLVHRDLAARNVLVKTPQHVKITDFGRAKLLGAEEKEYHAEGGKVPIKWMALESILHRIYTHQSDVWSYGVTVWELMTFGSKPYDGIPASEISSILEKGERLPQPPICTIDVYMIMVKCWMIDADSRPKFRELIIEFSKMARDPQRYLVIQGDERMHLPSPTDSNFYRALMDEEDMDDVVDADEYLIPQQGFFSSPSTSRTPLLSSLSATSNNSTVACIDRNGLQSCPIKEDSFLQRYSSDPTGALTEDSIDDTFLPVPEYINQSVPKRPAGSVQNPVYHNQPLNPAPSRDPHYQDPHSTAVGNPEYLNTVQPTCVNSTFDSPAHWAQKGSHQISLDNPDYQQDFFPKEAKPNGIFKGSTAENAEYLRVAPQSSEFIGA

Structure (SMILES)	inhibition [1]	inhibition [2]	inhibition at 10 µM [3]	inhibition at 10 µM [4]	inhibition at 10 µM [5]	inhibition at 10 µM [6]	inhibition [7]	inhibition at 10 µM [8]	inhibition [9]
COc1cc(NC(=O)Nc2cc(Nc3ccc(F)c(Cl)c3)ncn2)cc(OC)c1	1%	52.8%	53%	53%	25.5%	36.7%	46.7%	77.5%	69.1%
COc1cc(NC(=O)Nc2cc(Nc3cc(OC)cc(C(F)(F)F)c3)ncn2)cc(OC)c1	-1.7%	27.5%	57.7%	50.7%	36.5%	56%	18.5%	88.1%	48.6%
COc1cc(NC(=O)Nc2cc(Nc3cc(C)cc(F)c3)ncn2)cc(OC)c1	1.1%	16.7%	62%	28.3%	24.5%	35.3%	8%	64.5%	23.1%
COc1ccc(F)cc1Nc1cc(NC(=O)Nc2c(Cl)cccc2Cl)ncn1	11.1%	48.7%	78%	73.1%	38%	31.3%	39.2%	85.5%	63.3%
COc1cc(NC(=O)Nc2cc(Nc3cc(Br)ccc3OC)ncn2)cc(OC)c1	-1.5%	45.2%	76.3%	23.1%	43.5%	42.7%	51.4%	82.5%	52.4%
CC(C)(C)c1cccc(Nc2cc(NC(=O)Nc3c(Cl)cccc3Cl)ncn2)c1	10.7%	57.4%	37.3%	64.3%	29.6%	36.5%	44.7%	87%	68.4%
COc1cc(Br)ccc1Nc1cc(NC(=O)Nc2c(Cl)cccc2Cl)ncn1	12.6%	75.9%	42.7%	47.3%	29.1%	43%	65.6%	90.5%	83.2%
CC(C)(C)c1ccc(Nc2cc(NC(=O)Nc3c(Cl)cccc3Cl)ncn2)cc1	30.4%	63.2%	42.3%	71.3%	22%	40%	48.2%	41.5%	71.8%
CCc1ccc(Nc2cc(NC(=O)Nc3cc(OC)cc(OC)c3)ncn2)cc1	6.1%	28.1%	66.2%	32.7%	23.5%	50.1%	25.4%	78%	45.7%
O=C(Nc1cc(Nc2ccc(F)c(Cl)c2)ncn1)Nc1c(Cl)cccc1Cl	27.6%	96.7%	53.7%	67%	39.5%	47.3%	94.3%	91.1%	97%
COc1cc(Nc2cc(NC(=O)Nc3c(Cl)cccc3Cl)ncn2)cc(C(F)(F)F)c1	0.9%	48.4%	57.7%	32.3%	23.1%	33.1%	40%	88.5%	69.3%
Cc1ccc(Nc2cc(NC(=O)Nc3c(Cl)cccc3Cl)ncn2)cc1F	51%	87.1%	85.3%	45.3%	33.5%	40.7%	77.8%	92%	67.2%
CCc1ccc(Nc2cc(NC(=O)Nc3c(Cl)cccc3Cl)ncn2)cc1	47.3%	89.2%	58%	38.1%	31.5%	39.5%	79%	70%	89.4%
